The values below come from ChEMBL document CHEMBL1147471, “Selecting against S1P3 enhances the acute cardiovascular tolerability of 3-(N-benzyl)aminopropylphosphonic acid S1P receptor agonists” (Bioorg Med Chem Lett, 2004).

Data set [1] can be described thus: in vivo. The settings on record: rat, iv, 1 mg/kg.
Data set [2] can be described thus: in vivo. To be noted: rat, iv, 1 mg/kg. This is another data set of the same source.
Data set [3] is described as follows: in vivo. To be noted: rat, plasma, iv, 1 mg/kg.

Each structure is given as a SMILES string.

The molecule `CCCCCCCCOc1c(Br)cc(CNCCCP(=O)(O)O)cc1OC` had a half-life in data set [1] of 2.1 h. In data set [2], this molecule registered a Vd of 1.4 L/kg. Also, the clearance in data set [3] came out at 9.2 mL/min/kg.
